What was measured:
[1] = test system: colonic cells of the GI tract obtained from guinea pig; experiment: Ex vivo GLP-1 biosynthesis and secretion, guinea pig GI tract cells; assay type: cell-based
Description: To test for this, a pregnant guinea pig was anesthetized with isoflurane and sacrificed via intra-cardial injection of pentobarbital. Colon and rectum were quickly collected and intraluminal content washed out with ice-cold HBSS. After a thorough cleansing from the faecal material, and gentle scraping of the internal mucosa, the tissue was minced into 3 to 5-millimetre pieces and resuspended into 50 ml of ice cold HBSS. Pellet was spun down and washed again in 50 ml of ice-cold HBSS. Supernatant was carefully removed, and the epithelial fragments were then resuspended for 30 minutes at 37° C. into a 5 ml solution of HEPES 25 mM, collagenase-P 1 mg/ml in HBSS, pH 7.4 at 37° C.
The tissue was then pelleted and resuspended further for about 30 to 40 additional minutes at 37° C. within a 10 ml solution of 1 mg/ml collagenase-P as above.
After the digestion, about 40 ml of pre-warmed DMEM complete media was added (FBS 10%, glucose 4.5 g/L, glutamine 4 mM, sodium pyruvate 1 mM, HEPES 25 mM, sodium bicarbonate 3.7 g/L, Pen/Strep 1× and Ciprofloxacin 10 μg/ml pH 7.4 at 37° C.). Crypts and individual cells were isolated with a […] nylon strainer, spun down at 200 g for 5 minutes, resuspended into 10 ml of DMEM complete media and plated into 20 wells of a 24-well plate coated with a 3D gel of 3 mg/ml Matrigel (BD, Biosciences, Oxford, UK). After one day of incubation at 37° C. 5% CO2 in a humidified incubator, cells were washed with 500 μl of warm HBSS, and treated with 250 μl DMEM serum free (Complete medium without FBS) additioned with KR-62436 10 μg/ml and individually the following drugs or compounds: Forskolin and IBMX (20 μM each), oleoyl-LPI, and the two oleoyl-LPI analogs and/or derivatives ps297b (prepared as described in example 13) and ps316a (prepared as described in example 22) were all tested in quadruplicate at 20 μM.
After a 2-hour long incubation at 37 C 5% CO2, the supernatants were collected on ice, and quickly stored at […]. Active GLP-1 levels (7-37 amide and 7-36) were quantified on 50 μl of supernatant with an ELISA commercial kit (EMD Millipore). DMSO was used as a negative control, the combination of Forskolin and IBMX was included as positive control activators GLP-1. GLP-1 levels measured were standardized against the DMSO control.
The EC50 levels each one of oleoyl-LPI, compound ps297b and compound ps316a were also measured in quadruplicates at the conclusion of the 2 hour incubation. Guinea pig cells obtained as described above were also incubated with […] in quadruplicates and subjected to 2-hour long incubation at 37 C 5% CO2 as described above and EC50 levels measured.

NCI-H716 cells = experiment: GLP-1 secretion in NCI-H716 cells, in vitro human L cells model (Examples 30-33); assay type: cell-based
Description: (§1) To evaluate the GLP-1 biosynthesis and secreting capabilities of the compounds of formula I in vitro using the human-derived cell line NCI-H716, 50,000 such cells were seeded per well of a 24-well plate pre-coated with a thin layer of Matrigel (0.15 mg/ml) in RPMI complete (RPMI additioned with FBS 10%, Glucose 2 g/L, Glutamine 4 mM, Sodium Bicarbonate 2 g/L, Pen/Strep 1× pH 7.4 at 37° C.) and incubated at 37° C. in humidified 5% CO2 atmosphere to induce endocrine differentiation.
After 48 hours, media was withdrawn and cells washed once with warm HBSS (Hank's balanced salt solution) and then incubated in duplicate for 2 hours with the different dilutions of the oleoyl-LPI, OEA, DMSO (as negative control), a test compound of formula I, and KR-62436 10 μg/ml, all dissolved in RPMI serum free (RPMI complete without FBS) at 37° C. in humidified 5% CO2 incubator. Supernatant were quickly collected on ice and stored at −80° C. before quantification of GLP-1 with a commercial ELISA (EMD Millipore) specific for active-GLP-1 species.
as §1, with “1×pH” for “1× pH”
After 48 hours, media was withdrawn and cells washed twice with pre-warm HBSS (Hank's balanced salt solution) and then incubated in duplicate for 2 hours with 250 μl of 20 μM of either oleoyl-LPI, DMSO (as negative control) or a test compound of formula I, and […], all dissolved in RPMI serum free (RPMI complete without FBS) at 37° C. in humidified 5% CO2 incubator. Compounds of formula I tested were ps297b, ps316a, ps318a, ps319a, ps321a and ps323.
Supernatant were quickly collected on ice and stored at −80° C. before quantification of GLP-1 with a commercial ELISA (EMD Millipore) specific for active-GLP-1 species (e.g., GLP-1 (7-36) amide) and […]).
Compounds of formula I were tested for GLP-1 secretion in NCI-H716 cells essentially as describe in examples 30 and 31 above. EC50 GLP-1 secretion readout results were standardized relative to maximum GLP-1 secretion obtained with oleoyl-LPI. EC50 readout results were rated as low GLP-1 secretion activity (0-20% of maximum GLP-1 secretion achieved with oleoyl-LPI), moderate (21-79% of maximum GLP-1 secretion achieved with oleoyl-LPI), and high GLP-1 activity (80% and more of maximum GLP-1 secretion achieved with oleoyl-LPI). Table 3 also outlines the R1, R2 and R3 substituents of the compounds of formula I.

Danio rerio larvae = experiment: Zebrafish toxicity test; assay type: in vivo; conditions: two-days old larvae treated for 3 days; heartbeat, movement, teratogenicity; preliminary experiment
From the text: About two-days old Danio rerio larvae may be dechorionated and treated for about 3 days with increasing amount of any synthetic compound of formula I or salt or solvate thereof of this invention. The cardiotoxicity effect of the compound or salt or solvate may be assessed by measuring the heartbeat, the movement, and teratogenicity (hatching rate, mortality rate (LD50). The experiment may be repeated for three times or more times e.g., with about 10 larvae per concentration tested.
Two-days old Danio rerio larvae were dechorionated and treated for 3 days with increasing amount of a synthetic compound of formula I such as ps297b.

wild type mice = experiment: Oral Glucose GLP-1 secretion test; assay type: in vivo; conditions: oral gavage 20 mg/kg, samples 2 minutes post glucose load, N=3
Description: Active GLP-1 levels were measured in samples collected 2 minutes post glucose load. N=3
In a slight variation on the above method GLP-1 measurement in mice can be carried out by Peripheral GLP-1 stimulation and measurement in C57bl/6J mice. After 6 hours of fasting, the mice are weighed, and drug volumes are calculated. […] At 2 minutes post-glucose gavage, a blood sample is collected from the submandibular vein into an EDTA coated prechilled tube containing a panel of protease inhibitors. The plasma is separated by spinning at 1,500 g for 20 minutes at 4 C. the plasma is then collected and snap frozen on dry ice and store at −20 C before proceeding with hormone quantification. For hormone quantification the samples are thawed and total GLP-1 levels are quantified, GLP1(7-36)amide+GLP-1(9-36)amide, in 20 μL of plasma with the commercial ELISA kit from Millipore EZGLP1T-36K. This method is also described in Windelov J A et al Diabetologia. […]
Mice were sampled at about 2 minutes post glucose load, 20 μl of arterial blood may be sampled in K3-EDTA and KR-62436 containing tubes to collect plasma and samples are quickly store at −80° C. Plasma samples of 4 to 6 animals may be pool together and assayed to quantify the levels of active GLP-1 (such as GLP-1 (7-36)amide) using commercially available ELISA kits. […] Active GLP-1 levels were measured in samples collected 2 minutes post glucose load. […]

CCCCCCCC/C=C\CCCCCCCC(=O)Nc1ccc(-c2nnn[nH]2)cc1 [ps297b]
GLP-1 biosynthesis and secretion ex vivo ([1]; 20 μM, 2 hours, standardized against DMSO control): stimulated biosynthesis and secretion | stability after incubation ex vivo ([1]; 2 hours incubation ex vivo): remained stable after 2 hours incubation ex vivo | EC50 ([1]; Cavia porcellus, ex vivo incubation 2 hours, quadruplicates): 30 µM | GLP-1 biosynthesis and secretion from NCI-H716 L cells (NCI-H716 cells; 20 μM, 2 hours, normalized against DMSO vehicle control): able to mediate GLP-1 biosynthesis and secretion | level of GLP-1 biosynthesis and secretion compared with oleoyl-LPI (NCI-H716 cells; NCI-H716 cells, 20 μM, 2 hours): comparable to that of oleoyl-LPI | GLP-1 secretion Activity relative to oleoyl-LPI (NCI-H716 cells; NCI-H716 cells, standardized relative to maximum GLP-1 secretion obtained with oleoyl-LPI): High (high GLP-1 activity (80% and more of maximum GLP-1 secretion achieved with oleoyl-LPI)) | activity in inducing and/or increasing secretion of GLP-1 from cells of the GI tract (NCI-H716 cells; summary statement, compared with oleoyl-LPI): equal to or higher than oleoyl-LPI | concentration with no sign of toxicity (Danio rerio larvae): up to 200 micromolar | GLP-1 release (active GLP-1 levels) (wild type mice): increasing GLP-1 release
